Results from publication PMC3508689 (Biochemistry, 2011).

Biological target: T1, human PPM1D catalytic domain (residues 1–420) (Homo sapiens, UniProt O15297)
T1 sequence (O15297 1-420): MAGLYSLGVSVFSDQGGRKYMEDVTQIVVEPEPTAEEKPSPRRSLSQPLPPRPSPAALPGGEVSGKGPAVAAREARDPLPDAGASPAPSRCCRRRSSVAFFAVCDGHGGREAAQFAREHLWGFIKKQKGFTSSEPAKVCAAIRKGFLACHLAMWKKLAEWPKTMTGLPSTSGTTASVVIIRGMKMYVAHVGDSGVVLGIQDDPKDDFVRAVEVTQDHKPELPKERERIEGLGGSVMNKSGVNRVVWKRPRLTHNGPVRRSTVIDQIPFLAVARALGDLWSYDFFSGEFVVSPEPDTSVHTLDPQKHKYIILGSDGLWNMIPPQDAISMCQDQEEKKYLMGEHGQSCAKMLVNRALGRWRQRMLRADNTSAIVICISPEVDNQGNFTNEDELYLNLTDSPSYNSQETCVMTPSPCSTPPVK
Type: biochemical
Settings: cyclic peptide 25 μM, ATM substrate peptide 30 μM

Substance | inhibitory activity against PPM1D (in words)
cyclo(F-F2Pab-I-pY-DDC)-amide [peptide 44] | did not show inhibitory activity
cyclo[(D-Asp)-(D-Asp)-(D-pY)-(D-I)-(D-pS)-(D-F)-C]-amide [peptide 47] | no significant inhibitory activity
